From paper PMC9250534, “Synthesis and direct assay of large macrocycle diversities by combinatorial late-stage modification at picomole scale” (Nature Communications, 2022)

Target: MDM2 (Homo sapiens, UniProt Q00987)
Assay: MDM2 binding screen of Libraries 3 and 4: displacement of fluorescent probe F-M8 at 750 nM macrocycle
Procedure, shortened: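 Cyclic peptide scaffolds were acylated in DMSO with carboxylic acids (20 equiv.), HBTU and DABCO for 6 h at room temperature. Reactions were quenched overnight in 100 mM Tris-Cl pH 7.4, 0.01% Tween20. The fluorescein conjugate was also competed with nutlin-3a.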

[1] = Panel c, Library 4: best nine scaffolds and 15 additional carboxylic acids, displacement of fluorescent probe
[2] = Panel b, Library 3: 63 scaffolds combinatorially acylated with 15 carboxylic acids at 30 picomole scale, displacement of fluorescent peptide probe, macrocycle 750 nM

MDM2, sequence (Q00987 whole entry): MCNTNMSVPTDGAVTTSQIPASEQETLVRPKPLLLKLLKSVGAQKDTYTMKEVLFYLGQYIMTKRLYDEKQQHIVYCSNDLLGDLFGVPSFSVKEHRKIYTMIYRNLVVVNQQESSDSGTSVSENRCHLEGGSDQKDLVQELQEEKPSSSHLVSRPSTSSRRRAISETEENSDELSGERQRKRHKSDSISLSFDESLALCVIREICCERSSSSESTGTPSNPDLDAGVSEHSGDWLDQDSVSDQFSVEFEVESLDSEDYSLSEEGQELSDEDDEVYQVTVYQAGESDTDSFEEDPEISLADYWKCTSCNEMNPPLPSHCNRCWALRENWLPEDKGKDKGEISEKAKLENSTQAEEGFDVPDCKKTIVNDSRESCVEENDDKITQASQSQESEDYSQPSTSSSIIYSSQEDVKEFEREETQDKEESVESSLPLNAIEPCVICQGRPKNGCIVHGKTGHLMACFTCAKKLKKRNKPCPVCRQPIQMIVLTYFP

Row | Compound | fraction of fluorescent probe displaced [1] | fraction of fluorescent probe displaced [2]
1 | Cn1cc(C[C@@H]2NC(=O)[C@H](CNC(=O)/C=C/c3cccc(Cl)c3)NC(=O)[C@H]3CCCN(C3)C(=O)CCSSCCNC2=O)c2ccccc21 [X-Nip-Dap-Me-Trp + Acid 121] | 0.118 | 
2 | O=C1CCSSCCNC(=O)[C@H](Cc2cccc3ccccc23)NC(=O)[C@H](CNC(=O)c2ccc3ccccc3c2)NC(=O)C2(CC2)CN1 [X-Amcp-Dap-1-NaI + Acid 107] |  | -0.00844
3 | Cn1cc(C[C@@H]2NC(=O)[C@H](CNC(=O)/C=C/c3ccc(Cl)c(Cl)c3)NC(=O)[C@H]3CCCN(C3)C(=O)CCSSCCNC2=O)c2ccccc21 [X-Nip-Dap-Me-Trp + Acid 119] | 0.085 | 
4 | O=C1CCSSCCNC(=O)[C@H](Cc2c[nH]c3cc(Cl)ccc23)NC(=O)[C@@H](CNC(=O)c2ccc(Cl)cc2)NC(=O)C2(CC2)CN1 [X-Amcp-D-Dap-Cl-Trp + Acid 25] |  | 0.021
5 | O=C(/C=C/c1cccc(C(F)(F)F)c1)NC[C@@H]1NC(=O)[C@H]2CCCN(C2)C(=O)CCSSCCNC(=O)[C@H](Cc2ccc3ccccc3c2)NC1=O [X-Nip-Dap-2-Nal + Acid 122] | 0.012 | 
6 | O=C1CN(CCNC(=O)c2ccc(Cl)cc2)C(=O)[C@@H]2CN(CCO2)C(=O)CCSSCCNC(=O)[C@H](Cc2ccc3ccccc3c2)N1 [X-Cop-N-Aeg-2-Nal + Acid 25] |  | 0.00133
7 | O=C(NC[C@@H]1NC(=O)[C@H]2CCCN(C2)C(=O)CCSSCCNC(=O)[C@H](Cc2ccc3ccccc3c2)NC1=O)c1cnc2ccccc2n1 [X-Nip-Dap-2-Nal + Acid 130] | 0.0035 | 
8 | O=C(/C=C/c1ccc2ccccc2c1)NC[C@@H]1NC(=O)[C@H]2CCCN(C2)C(=O)CCSSCCNC(=O)[C@@H](Cc2c[nH]c3ccccc23)NC1=O [X-Nip-Dap-D-Trp + Acid 112] |  | 0.021
9 | CC(Oc1cccc(Cl)c1)C(=O)NCC1NC(=O)C2CN(CCO2)C(=O)CCSSCCNC(=O)C(Cc2c[nH]c3ccccc23)NC1=O [X-Cop-D-Dap-D-Trp + Acid 113] |  | 0.008
10 | CC(C)c1ccc(/C=C/C(=O)NC[C@@H]2NC(=O)[C@H]3CCCN(C3)C(=O)CCSSCCNC(=O)[C@H](Cc3c[nH]c4cc(Cl)ccc34)NC2=O)cc1 [X-Nip-Dap-Cl-Trp + Acid 127] | 0.109 | 
11 | O=C(/C=C/c1ccc(Cl)cc1)NC[C@@H]1NC(=O)C2(CC2)CNC(=O)CCSSCCNC(=O)[C@H](Cc2c[nH]c3cc(Cl)ccc23)NC1=O [X-Amcp-Dap-Cl-Trp + Acid 108] |  | 0.00133
12 | CC(Oc1cccc(Cl)c1)C(=O)NCC1NC(=O)C2(CC2)CNC(=O)CCSSCCNC(=O)C(Cc2c[nH]c3ccccc23)NC1=O (mixture of isomers) [X-Amcp-Dap-D-Trp + Acid 113] |  | -0.012
13 | O=C(/C=C/c1ccc2ccccc2c1)NC[C@H]1NC(=O)[C@H]2CCCN(C2)C(=O)CCSSCCNC(=O)[C@H](Cc2ccc3ccccc3c2)NC1=O [X-Nip-D-Dap-2-Nal + Acid 112] |  | 0.008
14 | O=C(NC[C@@H]1NC(=O)[C@@H]2CN(CCO2)C(=O)CCSSCCNC(=O)[C@H](Cc2c[nH]c3ccccc23)NC1=O)c1ccc2ccccc2c1 [X-Cop-Dap-Trp + Acid 107] |  | 0.108
15 | CC(=Cc1ccccc1)C(=O)O [Acid 123] | -0.00464 | 
16 | O=C1CCSSCCNC(=O)[C@H](Cc2c[nH]c3cc(Cl)ccc23)NC(=O)CN(CCNC(=O)C2COc3ccccc3O2)C(=O)C2(CC2)CN1 (some centres unmarked) [X-Amcp-N-Aeg-Cl-Trp + Acid 115] |  | 0.00133
17 | O=C(/C=C/c1ccc(F)cc1)NC[C@@H]1NC(=O)[C@H]2CCCN(C2)C(=O)CCSSCCNC(=O)[C@H](Cc2cccc3ccccc23)NC1=O [X-Nip-Dap-1-NaI + Acid 116] | 0.052 | 
18 | CC(C)c1ccc(/C=C/C(=O)NC[C@@H]2NC(=O)[C@H]3CCCN(C3)C(=O)CCSSCCNC(=O)[C@H](Cc3ccc4ccccc4c3)NC2=O)cc1 [X-Nip-Dap-2-Nal + Acid 127] | -0.021 | 
19 | O=C(CCS(=O)(=O)c1ccccc1)NC[C@H]1NC(=O)[C@H]2CCCN(C2)C(=O)CCSSCCNC(=O)[C@@H](Cc2c[nH]c3ccccc23)NC1=O [X-Nip-D-Dap-D-Trp + Acid 114] |  | 0.021
20 | Cn1cc(CC2NC(=O)C(CNC(=O)C=Cc3ccc(OCc4ccccc4)cc3)NC(=O)C3CN(CCO3)C(=O)CCSSCCNC2=O)c2ccccc21 [X-Cop-D-Dap-Me-Trp + Acid 110] |  | 0.028
21 | Cn1cc(C[C@@H]2NC(=O)[C@H](CNC(=O)C3COc4ccccc4O3)NC(=O)[C@H]3CCCN(C3)C(=O)CCSSCCNC2=O)c2ccccc21 (stereo partly drawn) [X-Nip-Dap-Me-Trp + Acid 115] |  | 0.028

Row | Compound | fraction of fluorescent probe displaced [1] | fraction of fluorescent probe displaced [2]
22 | CC(Oc1cccc(Cl)c1)C(=O)NC[C@H]1NC(=O)[C@H]2CCCN(C2)C(=O)CCSSCCNC(=O)[C@H](Cc2c[nH]c3cc(Cl)ccc23)NC1=O (stereo partly drawn) [X-Nip-D-Dap-Cl-Trp + Acid 113] |  | -0.00533
23 | O=C(/C=C/c1ccc(OCc2ccccc2)cc1)NC[C@H]1NC(=O)[C@@H]2CN(CCO2)C(=O)CCSSCCNC(=O)[C@@H](Cc2c[nH]c3ccccc23)NC1=O [X-Cop-D-Dap-D-Trp + Acid 110] |  | 0.015
24 | O=C(CCS(=O)(=O)c1ccccc1)NC[C@H]1NC(=O)[C@H]2CCCN(C2)C(=O)CCSSCCNC(=O)[C@H](Cc2c[nH]c3cc(Cl)ccc23)NC1=O [X-Nip-D-Dap-Cl-Trp + Acid 114] |  | 0.015
25 | O=C1CN(CCNC(=O)c2ccc(Cl)cc2)C(=O)C2CN(CCO2)C(=O)CCSSCCNC(=O)C(Cc2c[nH]c3ccccc23)N1 (centres unmarked) [X-Cop-N-Aeg-Trp + Acid 25] |  | 0.055
26 | O=C1CN(CCNC(=O)c2ccc(Cl)cc2)C(=O)[C@H]2CCCN(C2)C(=O)CCSSCCNC(=O)[C@H](Cc2ccc3ccccc3c2)N1 [X-Nip-N-Aeg-2-Nal + Acid 25] |  | 0.00133
27 | O=C(CCS(=O)(=O)c1ccccc1)NCCN1CC(=O)N[C@@H](Cc2c[nH]c3cc(Cl)ccc23)C(=O)NCCSSCCC(=O)NCC2(CC2)C1=O [X-Amcp-N-Aeg-Cl-Trp + Acid 114] |  | -0.00533
28 | O=C1CN(CCNC(=O)c2ccc3ccccc3c2)C(=O)[C@H]2CCCN(C2)C(=O)CCSSCCNC(=O)[C@H](Cc2ccc3ccccc3c2)N1 [X-Nip-N-Aeg-2-Nal + Acid 107] |  | 0.011
29 | O=C(/C=C/c1ccc(OCc2ccccc2)cc1)NC[C@@H]1NC(=O)[C@H]2CCCN(C2)C(=O)CCSSCCNC(=O)[C@@H](Cc2c[nH]c3ccccc23)NC1=O [X-Nip-Dap-D-Trp + Acid 110] |  | 0.00133
30 | O=C(/C=C/c1ccc(Cl)cc1)NCCN1CC(=O)N[C@@H](Cc2ccc3ccccc3c2)C(=O)NCCSSCCC(=O)NCC2(CC2)C1=O [X-Amcp-N-Aeg-2-Nal + Acid 108] |  | 0.041
31 | O=C(/C=C/c1ccc2ccccc2c1)NC[C@@H]1NC(=O)[C@H]2CCCN(C2)C(=O)CCSSCCNC(=O)[C@H](Cc2cccc3ccccc23)NC1=O [X-Nip-Dap-1-NaI + Acid 112] |  | 0.095
32 | Cn1cc(C[C@@H]2NC(=O)CN(CCNC(=O)/C=C/c3ccc(Cl)cc3)C(=O)[C@@H]3CN(CCO3)C(=O)CCSSCCNC2=O)c2ccccc21 [X-Cop-N-Aeg-Me-Trp + Acid 108] |  | 0.021
33 | Cn1cc(C[C@@H]2NC(=O)[C@H](CNC(=O)C3COc4ccccc4O3)NC(=O)C3(CC3)CNC(=O)CCSSCCNC2=O)c2ccccc21 (some centres unmarked) [X-Amcp-Dap-Me-Trp + Acid 115] |  | 0.015
34 | O=C(C=Cc1ccc(Cl)cc1)NCC1NC(=O)C2CN(CCO2)C(=O)CCSSCCNC(=O)C(Cc2c[nH]c3cc(Cl)ccc23)NC1=O (stereo not drawn) [X-Cop-Dap-Cl-Trp + Acid 108] |  | 0.075
35 | CN1C(=O)[C@@H](CNC(=O)/C=C/c2ccc(OCc3ccccc3)cc2)NC(=O)[C@@H]2CN(CCO2)C(=O)CCSSCCNC(=O)[C@@H]1Cc1c[nH]c2ccccc12 [X-Cop-D-Dap-NMe-Trp + Acid 110] |  | 0.015
36 | O=C(/C=C/c1ccc2ccccc2c1)NC[C@H]1NC(=O)[C@H]2CCCN(C2)C(=O)CCSSCCNC(=O)[C@H](Cc2cccc3ccccc23)NC1=O [X-Nip-D-Dap-1-NaI + Acid 112] |  | 0.021
37 | CCOc1ccc(/C=C/C(=O)NC[C@@H]2NC(=O)[C@H]3CCCN(C3)C(=O)CCSSCCNC(=O)[C@H](Cc3ccc4ccccc4c3)NC2=O)cc1 [X-Nip-Dap-2-Nal + Acid 117] | 0.069 | 
38 | O=C(NC[C@@H]1NC(=O)[C@@H]2CN(CCO2)C(=O)CCSSCCNC(=O)[C@H](Cc2c[nH]c3ccccc23)NC1=O)c1cccc(Oc2ccccc2)c1 [X-Cop-Dap-Trp + Acid 111] |  | 0.048
39 | Cn1cc(C[C@@H]2NC(=O)[C@H](CNC(=O)c3ccc(Cl)s3)NC(=O)C3(CC3)CNC(=O)CCSSCCNC2=O)c2ccccc21 [X-Amcp-Dap-Me-Trp + Acid 14] |  | 0.008
40 | O=C(CCS(=O)(=O)c1ccccc1)NC[C@H]1NC(=O)C2(CC2)CNC(=O)CCSSCCNC(=O)[C@H](Cc2ccc3ccccc3c2)NC1=O [X-Amcp-D-Dap-2-Nal + Acid 114] |  | -0.00533
41 | O=C1CN(CCNC(=O)c2cccc(Oc3ccccc3)c2)C(=O)[C@@H]2CN(CCO2)C(=O)CCSSCCNC(=O)[C@H](Cc2cccc3ccccc23)N1 [X-Cop-N-Aeg-1-NaI + Acid 111] |  | -0.00533
